Source: EP0981359B1, “COMPOSITIONS FOR ENHANCING IMMUNOSUPPRESSANTS' PHARMACOLOGICAL ACTIVITIES” (Zavialov, Vladimir Petrovich, priority 1997, dated 1998)
pKi: −log10 of the molar value.

Legend:
human peripheral cells = experiment: mitogen (PHA)-driven proliferation, [3H]-thymidine incorporation; format: cell-based
Experimental: Ninety five ml of blood were taken from each of 10 volunteer donors, and 5 ml of 3-5% EDTA were added to the blood immediately and mixed carefully to prevent coagulation. The blood was than mixed with the equal volume of medium 199 or with buffered physiological salt solution. Ficoll-Paque (Pharmacia) was poured into plastic centrifuge test-tubes with caps (Costar) (3 ml of Ficoll-Paque per each test-tube, volume of a test-tube - 15 ml, diameter - 13 mm at room temperature, and then 6-7 ml of diluted blood were carefully layered on top). The test-tubes were centrifuged at 20 °C for 40 minutes, at 400 g, with the brake of centrifuge being switched off. The mononuclear cells formed a layer on the border of the liquid division and the cells were collected with a Pasteur pipette into a centrifuge test-tube with 5 ml of RPMI 1640, containing 2% of inactivated fetal serum and penicillin (100 units/ml) with streptomycin (100 units/ml). Then the cells were washed with physiological buffer solution (PBS) three times with centrifuging at 400 g for 5 minutes at the temperature of +8 °C. When the concentration of the cells was 2.5^·10^6 cells/ml, they were placed in RPMI 1640 medium, containing 5% of fetal serum (heated for 30 minutes at 56 °C), 100 units/ml of penicillin, 100 units/ml of streptomycin, 1 ml 200 mM of L-glutamine per 100 ml of serum. All the reagents were produced by Gibco. The cells were dropped into a 96-well plate (100 µl per each plate) with mitogen - phytohemagglutinin (PHA) (final concentration - […]), the preparations under study and immunosuppressants (cyclosporin A, FK506 or rapamycin) in concentration - […]) were pipetted into the tubes beforehand. The plate was placed in a CO2-incubator at 5% CO2 with humid atmosphere for 72 hours. 12-18 hours before the completion of the incubation […] of [^3H]-thymidine was added into each well. […] The number of disintegrations per minute was counted using a Minibeta counter (LKB). The stimulation index was determined by arithmetical mean of at least three parallel measurements ±SD to the corresponding control.

[1] = system: human T-lymphoblastoid cell line MT-4; experiment: proliferation of IFN-sensitive T-lymphoblastoid cell line; format: cell-based; conditions: MT-4 cell line
[2] = target: common receptors on mouse thymocytes; conditions: cited from earlier work

α-peptoferon: octapeptide corresponding to the high-affinity binding/anti-lymphoproliferative site of hIFN-α2 (TMα1-like sequence 130-137) (LKEKKYSP; UniProt P01563 153-160, looked up, fragment)
effect on mitogen (PHA)-driven proliferation (lymphoproliferative response) (human peripheral cells; PHA, 72 hours, no immunosuppressant): inhibited by rhIFN-α2 and a-peptoferon in a dose-dependent fashion
effect on PHA-driven proliferation compared with rhIFN-α2 (human peripheral cells; PHA, no immunosuppressant): comparable effects
effect on PHA-driven proliferation in the presence of cyclosporin A (human peripheral cells; in the presence of 20 mM CsA in cultural medium, rhIFN-α2 at 10^-16 M): comparable effect
effect on the proliferation of MT-4 [1]: inhibited by rhIFN-α2 and a-peptoferon in a dose-dependent fashion
effect on the proliferation of MT-4 compared with rhIFN-α2 [1]: comparable effects
pKi ([2]; mouse thymocytes, read-out: Ki of recombinant (r)hIFN-α2 binding by α-peptoferon): ~12.00
affinity to the specific receptors in comparison with recombinant hIFN-α2 ([2]; previous studies): the same or higher affinity
